Measured values as given in patent US8822698B2, “Aminoacid derivatives, their process of preparation and their therapeutical uses as inhibitors of oncogenic signals by the Met family” (Universite D'Aix-Marseille, priority 2009, dated 2014).
“Also recorded” adds a separate entry of the source.

Columns and labels:
MDCK cells = assay: Toxicity observed in the cell scattering screening; format: cell-based
Protocol: (§1) For scattering assays, MDCK cells were pre-incubated with compounds for 2 hours at 0.1-100 μM concentrations at 37° C. in a humidified atmosphere of 5% CO2, followed by 24 hr stimulation with 20 ng/ml HGF (R&D Systems), as previously described (Patane et al., Biochem Biophys Res Commun 375, 184-189, 2008). The cells were further incubated at 37° C. in an atmosphere of 5% CO2 for 24-48 hours, washed with phosphate-buffered saline (PBS; Gibco BRL), and fixed in PFA (Sigma). The quantification of scattering response was performed by counting the number of cells with scattered morphology in 30 independent colonies. The […] corresponds to the concentration of compounds leading to a 50% inhibition of Met-triggered cell scattering. Active compounds were assayed to impair scattering response also on human breast MCF10A cells following the same procedure. For survival assays, GTL-16, HepG2 and U-87 cells were cultured in serum-free media for 24 hours prior to compound addition for 48 hours. Viability was assessed with the Cell Titer Glo Luminescent Assay (Promega). For in vitro tumorigenesis, soft agar growth assays were preformed using GTL-16, HepG2, and U-87 cells, as previously described (Patane et al., Cancer Res 66, 4750-4757, 2006).
Compounds of examples 1 (XIII), 2 (XIV), 4 (XVI), 5 (XVII), and 6 (XVIII) in particular elicit inhibitory activity on Met-triggered cell scattering. […] The SU11274 (Met inhibitor; Sugen) was used as reference compound. […] These findings were further supported by analysing the inhibitory activity of compounds on breast cells. […] Altogether, these studies identify a new class of compounds of general formula (I), which are able to interfere with Met-triggered cell scattering.

HepG2 cells = assay: Soft agar anchorage-independent growth (in vitro tumorigenesis), HepG2; format: cell-based; details: Homo sapiens, read-out: HepG2 IC 50
Protocol: (§2) MDCK cells were grown in Dulbecco's modified Eagle's medium (DMEM) (Gibco BRL) containing 4 mM L-glutamine and supplemented with 2% (v/v) foetal bovine serum (Gibco BRL), 100 U/mL penicillin, and 100 μg/mL streptomycin. Cells were plated at a density of 1000 cells per well in 24-well microplates and allowed to settle overnight at 37° C. in a humidified atmosphere of 5% CO2 prior to treatments. MCF10A human breast cells, MDA-MB231 human breast cancer cells, GTL-16 human gastric carcinoma cells, HepG2 human hepatocellular carcinoma cells, U-87 human glioblastoma-astrocytoma cells and LLC Lewis lung carcinoma cells were grown in RPMI medium (Gibco BRL) containing 4 mM L-glutamine and supplemented with 2% (v/v) foetal bovine serum (Gibco BRL), 100 U/mL penicillin, and 100 μg/mL streptomycin and kept at 37° C. in a humidified atmosphere of 5% CO2.
For scattering assays, MDCK cells were pre-incubated with compounds for 2 hours at 0.1-100 μM concentrations at 37° C. in a humidified atmosphere of 5% CO2, followed by 24 hr stimulation with 20 ng/ml HGF (R&D Systems), as previously described (Patane et al., Biochem Biophys Res Commun 375, 184-189, 2008). […] The quantification of scattering response was performed by counting the number of cells with scattered morphology in 30 independent colonies. […] Viability was assessed with the Cell Titer Glo Luminescent Assay (Promega). […]

GTL-16 cells [1] = assay: Soft agar anchorage-independent growth (in vitro tumorigenesis), GTL-16; format: cell-based, human
Protocol: as §2
as §1, with “2006). […]” for “2006).”

GTL-16 cells [2] = assay: In vivo tumorigenesis, GTL-16 cells injected intra-peritoneally in nude mice
Protocol: Xenografts of GTL-16 cells were established by intraperitoneal (i.p.) or subcutaneously (into the flank/leg region) injection of cells (10^6) in nude mice (S/SOPF SWISS NU/NU; Charles River). Mice were then treated with the compound of example 4 (i.p. 30 mg kg-1) or vehicle every two days (GTL-16 cell intra-peritoneally injected at d=0, treatment started at d=1) or every day (GTL-16 cell intra-peritoneally injected at d=0, treatment started at d=7; GTL-16 cell subcutaneously injected at d=0, treatment started at d=1). Treatments were performed either one day or seven days after cancer cell injection. Mice were then sacrificed, and tumor nodule numbers present in the peritoneal cavity, the measure of their diameter and their total weight was evaluated. Three independent tumorigenesis assays were performed (8 mice per group were used).
We evaluated the ability of compounds of general formula to impair tumour growth in vivo using nude mice injected intra-peritoneally with GTL-16 cells. […] For example, when compounds were administered one day after intraperitoneally injection of GTL-16 cells, the mean numbers of nodules were the following: a) mice trated with vehicle: <1 mm: 3; 1-2 mm: 9.3; 2-5 mm: 11; >5 mm: 3.5. b) mice treated with the compound of example 4: <1 mm: 0.3; 1-2 mm: 1.3; 2-5 mm: 1; >5 mm: 0.8 (FIG. 3). […] Moreover, tumour growth of GTL-16 cells subcutaneously injected was reduced by approximately 35% in mice treated with compounds (data not shown). Taken together, these findings provide evidence that the identified new scaffold interferes with tumour growth in vivo.

SF-539 = assay: NCI 60 human tumour cell line screen; format: cell-based; details: conc. 10^−5M; SF-539, CNS Cancer
Text: (§3) Compound of example 4 was screened in the NCI 60 human tumour cell line anticancer drug screen (Shoemaker et al Nature reviews 6, 2006, 813-823).

SK-MEL-28 = assay: NCI 60 human tumour cell line screen; format: cell-based; details: conc. 10^−5M; SK-MEL-28, Melanoma
Text: as §3

SK-MEL-5 = assay: NCI 60 human tumour cell line screen; format: cell-based; details: conc. 10^−5M; SK-MEL-5, Melanoma
Text: as §3

[3] = i.p. 30 mg kg-1, treatment one day after i.p. injection of GTL-16 cells
[4] = nude mice injected i.p. with GTL-16 cells

O=C(Cc1cc(C(F)(F)F)cc(C(F)(F)F)c1)N[C@@H](Cc1ccccc1)C(=O)Nc1ccc(-c2cn3c(n2)sc2ccccc23)cc1 [Example 4, (S)-2-(3,5-bis(trifluoromethyl)phenylacetamido)-3-phenyl-N-[4-(imidazo[2,1-b]benzothiazol-2-yl)phenyl]propanamide]
Concentration at which toxicity was or was not observed (MDCK cells): 100 µM | Toxicity (MDCK cells; Table 1, scattering screening): >50 µM | IC50 (HepG2 cells): 321 nM | Met-triggered anchorage-independent growth (GTL-16 cells [1]; GTL-16 cells, dose dependent, listed as XVI): severely reduced; also recorded: severely affected | IC50 (GTL-16 cells [1]; Homo sapiens, soft agar growth, GTL-16): 811 nM | mean number of nodules 1-2 mm (GTL-16 cells [2]; [3]): 1.3 | mean number of nodules 2-5 mm (GTL-16 cells [2]; [3]): 1 | mean number of nodules <1 mm (GTL-16 cells [2]; [3]): 0.3 | mean number of nodules >5 mm (GTL-16 cells [2]; [3]): 0.8 | number of tumours (GTL-16 cells [2]; [4]): drastically reduced | total weight of tumours (GTL-16 cells [2]; [4]): drastically reduced | Growth Percent (SF-539): 36.76% | Growth Percent (SK-MEL-28): 26.28% | Growth Percent (SK-MEL-5): 10.83%
